Source: ChEMBL document CHEMBL3243997, “(Acylaryloxy)acetic acid diuretics. 2. (2-Alkyl-2-aryl-1-oxo-5-indanyloxy)acetic acids” (1978)

Each compound was assayed on Canis familiaris (assay: Diuretic activity in dog assessed as chloride level in urine per min at 1 mg/kg, iv relative to control).
Format: functional, Canis lupus familiaris

With `NS(=O)(=O)c1cc(C(=O)O)c(NCc2ccco2)cc1Cl` [FUROSEMIDE] the Activity was 1080 µEq/min.

Each compound was assayed on Canis familiaris (assay: Diuretic activity in dog assessed as chloride level in urine per min at 5 mg/kg, iv relative to control).
Format: functional, Canis lupus familiaris

Compared with `O=C(O)COc1cc2c(c(Cl)c1Cl)C(=O)C(c1ccccc1)(C1CCCC1)C2` (stereo not given), `CCC1(c2ccccc2)Cc2cc(OCC(=O)O)c(Cl)c(Cl)c2C1=O` (stereo not given) is higher in Activity: 0.9 µEq/min for the first, 396 µEq/min for the second.

First: CC1(c2ccc(F)cc2)Cc2cc(OCC(=O)O)c(Cl)c(Cl)c2C1=O (stereo not given)
Second: CC1(c2ccc(N)cc2)Cc2cc(OCC(=O)O)c(Cl)c(Cl)c2C1=O (stereo not given)
The Activity of the first is lower: 362 µEq/min for the first, 1180 µEq/min for the second.

Each compound was assayed on Canis familiaris (assay: Diuretic activity in dog assessed as sodium level in urine per min at 1 mg/kg, iv relative to control).
Format: functional, Canis lupus familiaris

With `NS(=O)(=O)c1cc(C(=O)O)c(NCc2ccco2)cc1Cl` [FUROSEMIDE] the Activity was 960 milliequivalent.

What follows are compounds tested on Rattus norvegicus (assay: Natriuretic activity in rat assessed as per cage at 9 mg/kg, po).
Format: functional

First: O=C(O)COc1cc2c(c(Cl)c1Cl)C(=O)C(c1ccccc1)(C1CCCC1)C2 (stereo not given)
Second: CCC1(c2ccccc2)Cc2cc(OCC(=O)O)c(Cl)c(Cl)c2C1=O (stereo not given)
The Activity of the first is lower: 0.4 mEq for the first, 1.15 mEq for the second.

First: CC1(c2ccc(F)cc2)Cc2cc(OCC(=O)O)c(Cl)c(Cl)c2C1=O (stereo not given)
Second: CC1(c2ccc(N)cc2)Cc2cc(OCC(=O)O)c(Cl)c(Cl)c2C1=O (stereo not given)
The Activity of the first is higher: 0.86 mEq for the first, 0.53 mEq for the second.

`NS(=O)(=O)c1cc(C(=O)O)c(NCc2ccco2)cc1Cl` [FUROSEMIDE] was tested, and the Activity was 0.07 mEq.

These compounds were tested on Rattus norvegicus (assay: Natriuretic activity in rat assessed as per cage at 27 mg/kg, po).
Format: functional

Going from `O=C(O)COc1cc2c(c(Cl)c1Cl)C(=O)C(c1ccccc1)(C1CCCC1)C2` (stereo not given) to `CCC1(c2ccccc2)Cc2cc(OCC(=O)O)c(Cl)c(Cl)c2C1=O` (stereo not given), the Activity rises from 0.31 mEq to 1.19 mEq.

Going from `CC1(c2ccc(F)cc2)Cc2cc(OCC(=O)O)c(Cl)c(Cl)c2C1=O` (stereo not given) to `CC1(c2ccc(N)cc2)Cc2cc(OCC(=O)O)c(Cl)c(Cl)c2C1=O` (stereo not given), the Activity falls from 1.23 mEq to 0.98 mEq.

`NS(=O)(=O)c1cc(C(=O)O)c(NCc2ccco2)cc1Cl` [FUROSEMIDE] was tested, and the Activity was 1.25 mEq.

These compounds were tested on Rattus norvegicus (assay: Natriuretic activity in rat assessed as per cage at 3 mg/kg, po).
Format: functional

First: O=C(O)COc1cc2c(c(Cl)c1Cl)C(=O)C(c1ccccc1)(C1CCCC1)C2 (stereo not given)
Second: CCC1(c2ccccc2)Cc2cc(OCC(=O)O)c(Cl)c(Cl)c2C1=O (stereo not given)
The Activity of the first is higher: 0.79 mEq for the first, 0.75 mEq for the second.

Compared with `CC1(c2ccc(F)cc2)Cc2cc(OCC(=O)O)c(Cl)c(Cl)c2C1=O` (stereo not given), `CC1(c2ccc(N)cc2)Cc2cc(OCC(=O)O)c(Cl)c(Cl)c2C1=O` (stereo not given) is lower in Activity: 1.01 mEq for the first, 0.33 mEq for the second.

The compounds below were run on Rattus norvegicus (assay: Natriuretic activity in rat assessed as per cage at 81 mg/kg, po).
Format: functional

Compared with `O=C(O)COc1cc2c(c(Cl)c1Cl)C(=O)C(c1ccccc1)(C1CCCC1)C2` (stereo not given), `CCC1(c2ccccc2)Cc2cc(OCC(=O)O)c(Cl)c(Cl)c2C1=O` (stereo not given) is higher in Activity: 0.35 mEq for the first, 1.34 mEq for the second.

First: CC1(c2ccc(F)cc2)Cc2cc(OCC(=O)O)c(Cl)c(Cl)c2C1=O (stereo not given)
Second: CC1(c2ccc(N)cc2)Cc2cc(OCC(=O)O)c(Cl)c(Cl)c2C1=O (stereo not given)
The Activity of the first is higher: 1.73 mEq for the first, 1.34 mEq for the second.

In the case of `NS(=O)(=O)c1cc(C(=O)O)c(NCc2ccco2)cc1Cl` [FUROSEMIDE], the Activity was 2.44 mEq.

The compounds below were run on Canis familiaris (assay: Diuretic activity in dog assessed as sodium level in urine per min at 5 mg/kg, iv relative to control).
Format: functional, Canis lupus familiaris

Going from `O=C(O)COc1cc2c(c(Cl)c1Cl)C(=O)C(c1ccccc1)(C1CCCC1)C2` (stereo not given) to `CCC1(c2ccccc2)Cc2cc(OCC(=O)O)c(Cl)c(Cl)c2C1=O` (stereo not given), the Activity rises from 11 µEq/min to 431 µEq/min.

First: CC1(c2ccc(F)cc2)Cc2cc(OCC(=O)O)c(Cl)c(Cl)c2C1=O (stereo not given)
Second: CC1(c2ccc(N)cc2)Cc2cc(OCC(=O)O)c(Cl)c(Cl)c2C1=O (stereo not given)
The Activity of the first is lower: 352 µEq/min for the first, 1130 µEq/min for the second.

The compounds below were run on Canis familiaris (assay: Diuretic activity in dog assessed as […] urine volume at 5 mg/kg, iv relative to control).
Format: functional, Canis lupus familiaris

First: O=C(O)COc1cc2c(c(Cl)c1Cl)C(=O)C(c1ccccc1)(C1CCCC1)C2 (stereo not given)
Second: CCC1(c2ccccc2)Cc2cc(OCC(=O)O)c(Cl)c(Cl)c2C1=O (stereo not given)
The Activity of the first is lower: 0.8 mL for the first, 4 mL for the second.

Compared with `CC1(c2ccc(F)cc2)Cc2cc(OCC(=O)O)c(Cl)c(Cl)c2C1=O` (stereo not given), `CC1(c2ccc(N)cc2)Cc2cc(OCC(=O)O)c(Cl)c(Cl)c2C1=O` (stereo not given) is higher in Activity: 3 mL for the first, 10 mL for the second.

These compounds were tested on Pan troglodytes (assay: Natriuretic activity in chimpanzee assessed as change in Curate to Cinsulin ratio at 5 mg/kg, po).
Format: functional

Going from `O=C(O)COc1cc2c(c(Cl)c1Cl)C(=O)C(c1ccccc1)(C1CCCC1)C2` (stereo not given) to `CCC1(c2ccccc2)Cc2cc(OCC(=O)O)c(Cl)c(Cl)c2C1=O` (stereo not given), the Ratio rises from 0 to 0.12.

First: CC1(c2ccc(F)cc2)Cc2cc(OCC(=O)O)c(Cl)c(Cl)c2C1=O (stereo not given)
Second: CC1(c2ccc(N)cc2)Cc2cc(OCC(=O)O)c(Cl)c(Cl)c2C1=O (stereo not given)
The Ratio of the first is higher: 0.43 for the first, 0.1 for the second.

For `NS(=O)(=O)c1cc(C(=O)O)c(NCc2ccco2)cc1Cl` [FUROSEMIDE], the Ratio was -0.02.

These compounds were tested on Canis familiaris (assay: Diuretic activity in dog assessed as potassium level in urine per min at 1 mg/kg, iv relative to control).
Format: functional, Canis lupus familiaris

Compound `NS(=O)(=O)c1cc(C(=O)O)c(NCc2ccco2)cc1Cl` [FUROSEMIDE] has an Activity of 141 milliequivalent.

These compounds were tested on Canis familiaris (assay: Diuretic activity in dog assessed as […] urine volume at 1 mg/kg, iv relative to control).
Format: functional, Canis lupus familiaris

Compound `NS(=O)(=O)c1cc(C(=O)O)c(NCc2ccco2)cc1Cl` [FUROSEMIDE] has an Activity of 3 mL.

These compounds were tested on Pan troglodytes (assay: Natriuretic activity in chimpanzee assessed as per min at 5 mg/kg, po).
Format: functional

Going from `O=C(O)COc1cc2c(c(Cl)c1Cl)C(=O)C(c1ccccc1)(C1CCCC1)C2` (stereo not given) to `CCC1(c2ccccc2)Cc2cc(OCC(=O)O)c(Cl)c(Cl)c2C1=O` (stereo not given), the Activity rises from 47 uEq to 369 uEq.

First: CC1(c2ccc(F)cc2)Cc2cc(OCC(=O)O)c(Cl)c(Cl)c2C1=O (stereo not given)
Second: CC1(c2ccc(N)cc2)Cc2cc(OCC(=O)O)c(Cl)c(Cl)c2C1=O (stereo not given)
The Activity of the first is higher: 310 uEq for the first, 244 uEq for the second.

`NS(=O)(=O)c1cc(C(=O)O)c(NCc2ccco2)cc1Cl` [FUROSEMIDE] showed an Activity of 1035 uEq.
